Changes are numbered by the printed parent chain. pIC50: −log10 of the molar value. Where two headings read alike, the source gives them in different places.

Experiment [1] has as its target T1, Androgen Receptor (AR) (Homo sapiens, UniProt P10275, H875Y).
T1 construct: exclusively expresses a structurally full-length AR containing a H874Y mutation; endogenous in cells; host or cells: CWR22Pc-R1-AD1
T1 sequence (P10275 1-920 H875Y): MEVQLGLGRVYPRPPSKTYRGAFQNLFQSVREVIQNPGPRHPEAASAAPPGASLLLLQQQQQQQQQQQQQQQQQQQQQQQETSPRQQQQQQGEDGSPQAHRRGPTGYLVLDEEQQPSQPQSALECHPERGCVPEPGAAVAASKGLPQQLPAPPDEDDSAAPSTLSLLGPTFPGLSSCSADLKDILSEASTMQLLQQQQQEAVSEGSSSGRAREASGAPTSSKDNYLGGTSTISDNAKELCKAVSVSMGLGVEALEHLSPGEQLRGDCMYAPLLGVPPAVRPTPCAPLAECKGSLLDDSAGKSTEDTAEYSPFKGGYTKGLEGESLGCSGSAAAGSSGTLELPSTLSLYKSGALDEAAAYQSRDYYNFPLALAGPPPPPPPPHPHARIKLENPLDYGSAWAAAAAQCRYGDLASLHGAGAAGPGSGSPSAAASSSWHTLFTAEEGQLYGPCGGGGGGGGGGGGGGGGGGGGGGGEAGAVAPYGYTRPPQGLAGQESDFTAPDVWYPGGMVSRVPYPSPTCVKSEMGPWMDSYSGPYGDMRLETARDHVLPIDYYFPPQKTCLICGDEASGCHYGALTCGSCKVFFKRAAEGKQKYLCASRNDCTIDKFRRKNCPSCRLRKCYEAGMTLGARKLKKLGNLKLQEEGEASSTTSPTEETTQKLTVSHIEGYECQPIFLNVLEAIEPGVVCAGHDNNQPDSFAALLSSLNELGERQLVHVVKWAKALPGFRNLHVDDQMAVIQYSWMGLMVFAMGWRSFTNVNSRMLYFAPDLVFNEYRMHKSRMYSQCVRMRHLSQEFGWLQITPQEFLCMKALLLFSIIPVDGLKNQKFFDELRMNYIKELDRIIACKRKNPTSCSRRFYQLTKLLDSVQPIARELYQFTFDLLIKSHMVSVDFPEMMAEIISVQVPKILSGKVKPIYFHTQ
Kind of experiment: CETSA HT ITDRF at 46 °C, agonist mode (no exogenous DHT), CWR22Pc-R1-AD1 cells. It counts as binding.

Experiment [2] deals with AR-driven transcription (ARE-Luciferase). Kind of experiment: AR-driven transcription ARE Luciferase reporter assay in CWR22Pc-R1-AD1 cells.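 As to all read-outs here: cells stably carrying an ARE-driven firefly luciferase reporter, with luminescence as read-out, tested in phenol red free RPMI containing 10% charcoal stripped FBS.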 In kind it is cell-based, human. To be noted: 24 h; for pIC50: read-out: AR-driven transcription (ARE-Luciferase), 24 h, IC50; for Conclusion: activity in ARE-Luciferase assay: Supplementary Table S1. (A reporter such as luciferase makes a cellular process visible.)
Experimental: 15 µL 2x Steady-Glo® reagent (Promega) was added per well and incubated 15 min in the dark before reading luminescence using an EnVision platereader. Experiments were performed in phenol red free RPMI media supplemented with 10% charcoal stripped FBS.

Experiment [3] deals with T2, Androgen Receptor (AR) (Homo sapiens, UniProt P10275, T878A).
T2 construct: an alternative AR-positive prostate cancer cell line, LNCaP; endogenous in cells; host or cells: LNCaP
T2 sequence (P10275 1-920 T878A): T1 sequence (P10275 1-920 H875Y) with Y875H, T878A
Kind of experiment: CETSA HT ITDRF at 46 °C, agonist mode, LNCaP cells. It counts as binding. To be noted: LNCaP cells (AR T877A).

For another experiment, the system named is total cellular AR. Put plainly: CETSA HT control without heat shock and without exogenous DHT (total AR). In kind it is cell-based, human. Particulars: 2 h compound incubation, no exogenous DHT, no 46 °C heat shock.
The target in experiment [4] is T1, Androgen Receptor (AR). Put plainly: CETSA HT ITDRF at 46 °C, antagonist mode in the presence of 1 nM DHT, CWR22Pc-R1-AD1 cells. In kind it is binding.
Experimental: [sequence] experiments were performed in a plate-based, automation-compatible assay setup, as described in Supplementary Fig. S2e. […] Internal standard controls were included on each plate (Supplementary Fig. S10). […] 10 µL of cells were seeded per well of the PCR plate using a Multidrop Combi dispensor, covered with a plate lid, briefly centrifuged, and incubated under standard tissue culture conditions for 2 h or indicated timepoint. […] Cells were lysed by addition of 10 µL/well 2x SureFire Lysis Buffer using a Multidrop Combi. […] Antibody and AlphaScreen reagent, prepared as above, were added by Multidrop Combi (6 µL/well). Plates were incubated in the dark 16 h and analysed using an EnVision platereader.
For experiment [5], the system named is AR-responsive transcript FKBP5. Kind of experiment: AR functional RT-qPCR assay (FKBP5 transcript) in CWR22Pc-R1-AD1 cells. In kind it is cell-based, human. Particulars: 48 h, 1 nM DHT. The source says: oxygen from the donor to the acceptor, exciting a fluorophore to emit light at 520-620 nm5.
Two primary anti-AR antibodies derived from mouse and rabbit were applied to bind AR simultaneously at separate epitopes. Secondary AlphaScreen® antibodies were combined with the primary antibodies in the form of AlphaScreen® donor beads functionalised with antibodies recognising mouse antibody IgG (PerkinElmer AS104D), and AlphaScreen® acceptor beads functionalised with antibodies recognising rabbit antibody IgG (PerkinElmer AL104C). […]
red free RPMI1640 media supplemented with 10% charcoal-stripped serum was used throughout. […] Media was removed using an ELX405 CW washer (BioTek) and 12 µL RealTime ready Cell Lysis Kit supplemented with RNAse inhibitor (Roche) was added per well. […] RealTime ready RNA Virus Master Mix (Roche) was prepared following manufacturer’s instructions, supplemented with primers and probes for FKBP5 (FAM, IDT Ref Seq # NM_001145776(3)) and β-Actin (VIC, IDT Ref Seq # NM_001101(1)). […] PCR plates were sealed and analysed using a LightCycer®II 480 (Roche). […] 40 PCR cycles were performed consisting of 30 sec at 95 °C, 20 sec at 60 °C, fluorescence acquisition, and 1 sec at 72 °C. Calculated Cq values were exported for analysis. […]

In the case of `CC(C)(O)C(=O)Nc1ccc([N+](=O)[O-])c(C(F)(F)F)c1` [Hydroxyflutamide], the “AR thermal stabilisation in time-course of compound incubation” value on Androgen Receptor (AR) [1] (10 minutes up to 6 hours incubation) was “No thermal”. The “AR thermal stabilisation / target engagement by compound alone” value at Androgen Receptor (AR) [1] (no exogenous agonist) was “did not thermally stabilise AR”. In addition, in experiment [2] (Homo sapiens), the pIC50 – broadly, the negative decadic logarithm of the IC50, by convention in mol/L – is 6.87. In experiment [2] (Homo sapiens, read-out: ARE-Luciferase response pIC50 (converted)), the IC50 was 0.135 µM. Also, the “Conclusion: activity in ARE-Luciferase assay” value in experiment [2] (1 nM DHT) is recorded as “Active”. For the same compound, the “AR thermal stabilisation / agonist binding mode by compound alone” value on Androgen Receptor (AR) [3] was “did not show any evidence of binding as an agonist”. The “effect on total AR (no heat shock)” value with total cellular AR was “do not reduce total AR”. In addition, the “temporal analysis of target engagement (competition of DHT)” value on Androgen Receptor (AR) [4] (1 nM DHT, incubation 10 minutes – 6 hours) is “increasing competition of DHT from AR over time”. Also, at Androgen Receptor (AR) [4] (Supplementary Table S1, 2 h, 46 °C), the “Conclusion: activity in CETSA HT” value is given as “Active”.

As to `N#Cc1cc2cc(CN3CCC(Nc4ncnc5sc(CC(F)(F)F)cc45)CC3)ccc2[nH]1` [MI-136], the pIC50 in experiment [2] (CWR22Pc-R1-AD1 cells, 1 nM DHT) is 5.13. Moreover, the “Conclusion: activity in ARE-Luciferase assay” value in experiment [2] (1 nM DHT) is reported as “Active”. In addition, the “reduction of AR-responsive transcript FKBP5 (RT-qPCR)” value in experiment [5] is given as “confirmed”.

With `Cc1c(CN2CCC(Nc3ncnc4sc(CC(F)(F)F)cc34)CC2)ccc2c1cc(C#N)n2Cc1cn[nH]c1` [MI-503], the negative-log IC50 (pIC50) in experiment [2] (CWR22Pc-R1-AD1 cells, 1 nM DHT) was 4.96. Besides, the “Conclusion: activity in ARE-Luciferase assay” value in experiment [2] (1 nM DHT) was “Active”. Besides, in experiment [5], the “reduction of AR-responsive transcript FKBP5 (RT-qPCR)” value is reported as “confirmed”.

These data come from article PMC5760633, “Determining direct binders of the Androgen Receptor using a high-throughput Cellular Thermal Shift Assay” (Scientific Reports, 2018).
